Data as given in US8568714B2, “Lys K endolysin is synergistic with lysostaphin against MRSA” (priority 2008, dated 2013).
Values joined by “and” are separate entries in the source; they are usually repeats but may differ in a detail not shown here. Identical values can stand only once. Like-named read-outs stand apart in the source and are kept apart here.

Assays:
[1] = system: S. aureus strain 305; assay: MIC determination on S. aureus strain 305; format: cell-based; conditions: Staphylococcus aureus
Procedure: (§1) A classical microdilution broth method for determination of the Minimal Inhibitory Concentration (MIC) was used (Jones et al. 1985. In Manual of Clinical Microbiology, Balows et al. (Eds.), American Society for Microbiology, Washington D.C., pages 972-977). Briefly, logarithmic-phase bacteria were cultivated in tryptic soy broth and adjusted in broth to a concentration of 1×10^6 CFU/ml. Sterile microtiter plates containing 100 μl of either LysK or lysostaphin diluted in TSB are inoculated with 100 μl of the bacterial suspension to yield 5×10^5 CFU/ml. The plate is incubated at 37° C. for 20 h, at which point the plate is analyzed for clear vs. turbid wells. Each MIC assay represents at least two identical determinations per experiment.

[2] = system: MRSA strain USA300; assay: Microdilution broth MIC determination; format: cell-based, Staphylococcus aureus; conditions: MRSA USA300, TSB, 37° C., 20 h
Procedure: as §1
MIC determinations for MRSA strain USA300 by lysostaphin and C-His-LysK, were performed in a 96 well microtiter plate. (FIG. 5).

[3] = system: MRSA USA300; assay: Modified checkerboard synergy assay; format: cell-based, Staphylococcus aureus
Procedure: Modified checkerboard assay experiments were performed according to Graham and Coote, supra. S. aureus 305 or MRSA USA300 cells at 1×10^6 CFU/ml were prepared as for the MIC assay, and added to wells containing varying concentrations of both LysK and lysostaphin diluted in TSB. The amount of buffer in each well was adjusted to maintain the same final concentration of storage buffer (5%) and corrected with 2×TSB to maintain 1×TSB in all wells. The plate was incubated at 37° C. for 20 h, and then analyzed for clear vs. turbid wells. The Fractional Inhibitory Concentration (FIC) is calculated as the MIC of the antimicrobial in combination divided by the MIC of the antimicrobial acting alone.
To determine if these proteins could act synergistically, both LysK and lysostaphin were tested in a checkerboard assay with various concentrations of each to determine the minimal concentration of each in combination, that could inhibit growth of the MRSA USA300 (FIG. 6). The last row and column on the 96 well microtiter plate replicate the MIC determinations for lysostaphin and LysK, respectively, with nearly identical results obtained for the MIC in this assay, as in FIG. 5. […] It is apparent that the inhibition of growth when the two were added simultaneously was greater than the expected additive effect of each alone. The ΣFIC was 0.45+/−0.07 (three independent experiments), indicating strong synergistic activity (Hall et al., supra), including one assay with S. aureus 305 (data not shown).

Compound: CC1(C)S[C@@H]2[C@H](NC(=O)[C@H](N)c3ccccc3)C(=O)N2[C@H]1C(=O)O [Ampicillin]
- MIC ([1]; read-out: MIC): ~0.4 µg/mL
- MIC ([1]; translated from μg/ml, read-out: MIC on a molar basis): ~1 µM

Compound: lysostaphin: recombinant non-tagged mature 246 amino acid anti-staphylococcal bacteriocin of S. simulans, Sigma-Aldrich L0761
- MIC [2]: 0.096 µg/mL
- MIC ([2]; listed as Lysostaphin): 0.097 µg/mL and 0.096 ± 0.018 µg/mL
- concentration of each in combination that inhibits growth ([3]; cleared well: lysostaphin 0.018 with LysK 11.43): 0.018 µg/mL
- concentration of each in combination that inhibits growth ([3]; cleared well: lysostaphin 0.027 with LysK 5.71): 0.027 µg/mL
- concentration in combination as % of each agent's MIC ([3]; second cleared-well condition): 16% and < 16%
